According to patent US5656440A, “Nucleotide sequences coding for the bovine β3 -adrenergic receptor (ARβ3) and their applications” (Virbac, priority 1993, dated 1997):
Read-outs that look alike come from different tables or passages of the source.

Columns and labels:
[1] = target: T1, bovine ARβ3 receptor (Bos taurus, UniProt P46626); assay: competitive binding of ligands against [^125 I]cyanopindolol on intact CHO cells, bovine receptor (clone 62-26)
T1 construct: to liberate the 1598-base pair fragment containing the coding region of the bovine β3 gene; expressed in transfected cells
Experimental: Reaction is stopped by dilution with ice-cold PBS, the cells are filtered off and the radioactivity is measured in a gamma counter. The results were analysed using Graph-Pad.COPYRGT. software.

[2] = target: T1, bovine ARβ3 receptor; assay: adenylate cyclase activation (cAMP accumulation) in CHO cells, bovine receptor (clone 62-26); assay type: cell-based; parameters: Emax: dose or concentration left out as unconfirmed; settings: for Emax: CHO; for Emax / Emax at 100 µM: 0.5 h, read-out: Accumul. cAMP IA (intrinsic activity)
Experimental: Briefly, preconfluent cells in six-well plates (0.6×10^6 cells/well) are placed in contact or otherwise with increasing doses of ligands for 30 minutes at 37° C. Reaction is stopped by washing in PBS at 4° C. and adding 500 μl of 1N NaOH. After centrifugation and neutralization with 1N acetic acid, the cell lysates are recovered and the total amount of cAMP accumulated is determined using a commercial assay kit.

[3] = target: mouse ARβ3 receptor; settings: Mouse RAβ3-CHO; read-out: Binding Ki; cited from earlier work
[4] = tested on: mouse ARβ3 receptor; settings: cited from earlier work; for Accumul. cAMP IA (intrinsic activity) / EC50: Mouse RAβ3-CHO; for Accumul. cAMP IA (intrinsic activity): ratio of effect of ligand at 10^-4 M to effect of isoproterenol at 10^-4 M, 100 µM; for EC50: read-out: Accumul. cAMP Kact (adenylate cyclase activation constant); for functional character (agonist/antagonist): mouse ARβ3
[5] = target: human ARβ3 receptor; settings: Human RAβ3-CHO; read-out: Binding Ki; cited from earlier work
[6] = tested on: human ARβ3 receptor; settings: cited from earlier work; for Accumul. cAMP IA (intrinsic activity) / EC50: Human RAβ3-CHO; for Accumul. cAMP IA (intrinsic activity): ratio of effect of ligand at 10^-4 M to effect of isoproterenol at 10^-4 M, 100 µM; for EC50: read-out: Accumul. cAMP Kact (adenylate cyclase activation constant); for functional character (agonist/antagonist): human ARβ3
[7] = tested on: β1 -, β2 - and β3 -AR; settings: β1, β2, β3 subtypes; cited from earlier work
[8] = tested on: bovine ARβ3; assay: binding of [^125 I]cyanopindolol to transfected cells stably expressing ARβ3
Description: Stable colonies are screened for their capacity to bind specifically to [^125 I]cyanopindolol and also for their capacity to stimulate adenylate cyclase in the presence of isoproterenol, in accordance with protocol described in TATE et al., Eur. J. Biochem., 191, 196, 357-361.

[9] = BovineRAβ3-CHO, 0.5 nM [^125 I]cyanopindolol, 30 minutes at 37° C., read-out: Binding Ki
[10] = BovineRAβ3-CHO, 30 minutes at 37° C., read-out: Accumul. cAMP Kact (adenylate cyclase activation constant)
[11] = BovineRAβ3-CHO, ratio of effect of ligand at 10^-4 M to effect of isoproterenol at 10^-4 M

T1 sequence (P46626 whole entry, the tested form may be a part): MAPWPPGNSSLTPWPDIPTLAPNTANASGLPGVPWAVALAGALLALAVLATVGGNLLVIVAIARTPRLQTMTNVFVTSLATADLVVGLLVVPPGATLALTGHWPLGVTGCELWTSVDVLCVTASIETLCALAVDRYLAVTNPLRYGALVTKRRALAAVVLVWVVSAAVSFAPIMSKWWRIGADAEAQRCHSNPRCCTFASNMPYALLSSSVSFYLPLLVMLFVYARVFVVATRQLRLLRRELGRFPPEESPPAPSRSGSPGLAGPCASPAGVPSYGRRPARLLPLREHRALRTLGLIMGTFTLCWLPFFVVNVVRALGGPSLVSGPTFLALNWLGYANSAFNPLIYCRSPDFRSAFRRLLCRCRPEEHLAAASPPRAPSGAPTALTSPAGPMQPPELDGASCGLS

`C[C@H](Cc1ccc(OCC(=O)O)cc1)NC[C@H](O)c1cccc(Cl)c1` (relative stereo) [BRL 37344] showed a Ki [1] of 2.13 ± 1.4 nM, an EC50 [2] of 0.3 nM and an Emax [2] of 84 ± 10%. The Ki [3] was 290 ± 136 nM, the “Accumul. cAMP IA (intrinsic activity)” value [4] was 1.07 ± 0.08 and the EC50 [4] was 0.4 ± 0.1 nM. For the same compound, the Ki [5] was 287 ± 92 nM, the “Accumul. cAMP IA (intrinsic activity)” value [6] was 1.11 ± 0.12 and the EC50 [6] was 15 ± 3 nM. The described agonist/antagonist class [7] was “β1 -, β2 - and β3 -AR-receptor agonists”.
Compound `CNC[C@H](O)c1ccc(O)c(O)c1` [(- ) epinephrine, (-)-epinephrine] has a Ki [1, 9] of 11100 nM, an EC50 [2, 10] of 50.7 nM and an Emax [2] of 80 ± 30%. The Ki [3] was 4600 nM, the “Accumul. cAMP IA (intrinsic activity)” value [4] was 0.91 ± 0.03 and the EC50 [4] was 23 ± 0.3 nM. The Ki [5] was 20600 nM, the “Accumul. cAMP IA (intrinsic activity)” value [6] was 1.00 ± 0.04 and the EC50 [6] was 49 ± 5 nM. For the same compound, the described agonist/antagonist class [7] was “β1 -, β2 - and β3 -AR-receptor agonists”.
For `CC(C)(C)NCC(O)COc1cccc2[nH]c(C#N)c([125I])c12` (stereo not drawn) [[^125 I]cyanopindolol], the “binding affinity compared to ARβ3 in man or in mouse” value [8] was “affinity equivalent to that of the corresponding ARβ3 in man or in mouse”.
In the case of `CC(C)NC[C@H](O)COc1cccc2ccccc12` [(- ) propranolol, (-)-propranolol], the “functional character (agonist/antagonist)” value [4] is listed as “antagonist”, the “Accumul. cAMP IA (intrinsic activity)” value [6] is listed as 0.51 ± 0.12 and the “functional character (agonist/antagonist)” value [6] is listed as “partial agonist”.
In the case of `CC(C)NCC(O)c1ccc(O)c(O)c1` (single isomer, unassigned; (-)) [(-) isproterenol, (-)-iso-proterenol], the Ki [1] is reported as 84 ± 81 nM, the EC50 [2] is reported as 14 ± 2 nM and the Emax [2] is reported as 90 ± 10%. The Ki [5] was 620 nM and the described agonist/antagonist class [7] was “β1 -, β2 - and β3 -AR-receptor agonists”.
With `CC(C)(Cc1c[nH]c2ccccc12)NCC(O)COc1ccccc1C#N` (stereo not drawn) [Bucindolol, bucindolol] the Ki [1, 9] was 73 ± 42 nM, the Emax at 100 µM [2, 11] was 99 ± 10% and the EC50 [2, 10] was 12.8 nM. For the same compound, the Ki [3] was 21 ± 5 nM, the “Accumul. cAMP IA (intrinsic activity)” value [4] was 1.11 ± 0.06 and the EC50 [4] was 40 ± 14 nM. The Ki [5] was 23 ± 10 nM, the “Accumul. cAMP IA (intrinsic activity)” value [6] was 1.01 ± 0.10 and the EC50 [6] was 7 ± 1.2 nM. For the same compound, the described agonist/antagonist class [7] was “specific for the ARβ3 receptor (β1 -, β2 -AR antagonists)”.
In the case of `Cc1ccc(Cl)c(OCC(O)CNC(C)(C)C)c1` (single isomer, unassigned; (-)) [(-) bupranolol, bupranolol], the Ki [1, 9] is reported as 85 ± 40 nM, the Emax at 100 µM [2, 11] is reported as 34 ± 1% and the EC50 [2, 10] is reported as 507 nM. For the same compound, the “functional character (agonist/antagonist)” value ([2]; bovine ARβ3) was “partial agonist”, the Ki [3] was 42 ± 19 nM and the “functional character (agonist/antagonist)” value [4] was “antagonist”. The “functional character (agonist/antagonist)” value ([4]; listed as bupranolol) was “potent antagonist”, the Ki [5] was 50 ± 14 nM and the “functional character (agonist/antagonist)” value [6] was “antagonist”. For the same compound, the “functional character (agonist/antagonist)” value ([6]; listed as bupranolol) was “potent antagonist” and the described agonist/antagonist class [7] was “antagonist of the three subtypes of receptor”.
`NC[C@H](O)c1ccc(O)c(O)c1` [(-) norepinephrine, (-)-norepinephrine] showed a Ki [1] of 423 ± 255 nM, an EC50 [2] of 54 ± 4.3 nM and an Emax [2] of 100 ± 50%. For the same compound, the Ki [3] was 1840 nM, the “Accumul. cAMP IA (intrinsic activity)” value [4] was 1.06 ± 0.06 and the EC50 [4] was 13 ± 4 nM. For the same compound, the Ki [5] was 475 ± 75 nM, the “Accumul. cAMP IA (intrinsic activity)” value [6] was 1.00 and the EC50 [6] was 6.32 ± 0.7 nM. The described agonist/antagonist class [7] was “β1 -, β2 - and β3 -AR-receptor agonists”.
With `CC(C)(C)NCC(O)COc1cccc2[nH]c(=O)[nH]c12` (stereo not drawn) [CGP 12177A] the Ki [1, 9] was 218 ± 161 nM, the Emax at 100 µM [2, 11] was 93 ± 20% and the EC50 [2, 10] was 1.41 nM. The Ki [3] was 152 ± 19 nM, the Ki [5] was 88 ± 22 nM and the “Accumul. cAMP IA (intrinsic activity)” value [6] was 0.68 ± 0.02. The EC50 [6] was 139 ± 44 nM and the described agonist/antagonist class [7] was “specific for the ARβ3 receptor (β1 -, β2 -AR antagonists)”.
With `O=C(O)COc1ccc(OCCNCC(O)COc2ccccc2)cc1` (stereo not drawn) [ICI 201651] the Ki [1, 9] was 27.7 ± 24 nM, the EC50 [2, 10] was 1.1 nM and the “Accumul. cAMP IA (intrinsic activity)” value ([2]; BovineRAβ3-CHO, ratio of effect of ligand at 10^-4 M to effect of isoproterenol at 10^-4 M, 30 min, 100 µM) was 0.85 ± 0.1. For the same compound, the Ki [3] was 239 ± 104 nM, the “Accumul. cAMP IA (intrinsic activity)” value [4] was 1.02 ± 0.02 and the EC50 [4] was 15 ± 1 nM. For the same compound, the Ki [5] was 85 ± 12 nM, the “Accumul. cAMP IA (intrinsic activity)” value [6] was 1.14 ± 0.14 and the EC50 [6] was 20 ± 9 nM. For the same compound, the described agonist/antagonist class [7] was “specific for the ARβ3 receptor (β1 -, β2 -AR antagonists)”.
